System: Nucleic Acid
Assay: Association constant (Ka) with DNA dodecamer d(CCGGAATTCCGG) was determined
Type: nucleic-acid assay

With `CN1CCN(c2ccc3[nH]c(-c4ccc5[nH]c(-c6ccc(O)cc6)nc5c4)nc3c2)CC1` the Ka was 1.3 M⁻¹.

Source: ChEMBL document CHEMBL1132502, “Synthesis of a fluorescent microgonotropen (FMGT-1) and its interactions with the dodecamer d(CCGGAATTCCGG)” (Bioorg Med Chem Lett, 1999)
